Assay results reported in patent US20200147158A1, “SANGHUANGPORUS SANGHUANG STRAINS AND THEIR PRODUCTS, EXTRACTS AND APPLICATIONS” (FOOD INDUSTRY RESEARCH AND DEVELOPMENT INSTITUTE, priority 2018, published 2020).

Columns and labels:
Type in all cases: cell-based
[1] = biological target: T1, ER-β (Homo sapiens, UniProt Q92731); experiment: Evaluation of SERMs activity: ERβ/pERE-TA-SEAP reporter gene assay in transfected CV-1 cells; conditions: for ER Subtype Activity ER-β: ratio to untreated cells (Medium only); for ER-β/ER-α: ratio of relative ER-β to ER-α activity
T1 construct: expressed in transfected cells; host or cells: CV-1 (Cercopithecus aethiops kidney cells)
Method: (§1) CV-1 cells (Cercopithecus aethiops kidney cells) were grown at a confluence of 70-80% and were harvested in a cell suspension at a concentration of 5×10^4 cell/ml. The cell suspensions were added to each well (100 μl/well) of 96-well plate and the 96-well plate was incubated at 37° C., 5% CO2 incubator overnight.
(§2) 500 μl jetPRIME® buffer. 5 μg pERE-TA-SEAP and 5 μg ERα DNA plasmid (or ERβ DNA plasmid) were mixed in 1.5 ml eppendorf, then 20 μl jetPRIME® Transfection Reagent and 1.5 ml medium were added. The DNA mixtures were added to each well of 96-well plate (20 μl) and the 96-well plate was incubated at 37° C., 5% CO2 incubator for 4 hours.
(§3) The supernatant solutions were removed from each well of 96-well plate, then 90 μl charcoal-treated. FBS medium without phenol red were added to each well of 96-well plate. The samples to be tested were added to the wells of 96-well plate, which was incubated in 37° C., 5% CO2 incubator for 48 to 72 hours. The cells were harvested for the subsequent reporter gene assay and cell toxicity assay.
25 μl cell culture supernatants were collected from the 96-well plate and, then added to a new luminescence microplate, which was incubated at 65° C. water bath for 30 minutes to remove the activity endogenous alkaline phosphatase, and was placed on ice for 5 minutes and was centrifuged (1,000 rpm) for one minute. 25 μl PhosphaLight™ assay buffers were added at room temperature for 5 minutes and 25 μl CSPD (Disodium 3-(4-methoxyspiro {1,2-dioxetane-3,2′-(5′-chloro)tricyclo [3.3 1.13,7]decan}-4-yl phenyl phosphate)-containing Phospha-Light™ reaction buffers were added at room temperature for 20 minutes. The luminescence microplate was placed in Victor™ Light 1420 Luminescence Counter and the SEAP enzyme activities were measured.

[2] = biological target: T2, ER-α (Homo sapiens, UniProt P03372); experiment: Evaluation of SERMs activity: ERα/pERE-TA-SEAP reporter gene assay in transfected CV-1 cells; conditions: 25 μg/mL, ratio to untreated cells (Medium only)
T2 construct: expressed in transfected cells; host or cells: CV-1 (Cercopithecus aethiops kidney cells)
T2 sequence (P03372 1-595): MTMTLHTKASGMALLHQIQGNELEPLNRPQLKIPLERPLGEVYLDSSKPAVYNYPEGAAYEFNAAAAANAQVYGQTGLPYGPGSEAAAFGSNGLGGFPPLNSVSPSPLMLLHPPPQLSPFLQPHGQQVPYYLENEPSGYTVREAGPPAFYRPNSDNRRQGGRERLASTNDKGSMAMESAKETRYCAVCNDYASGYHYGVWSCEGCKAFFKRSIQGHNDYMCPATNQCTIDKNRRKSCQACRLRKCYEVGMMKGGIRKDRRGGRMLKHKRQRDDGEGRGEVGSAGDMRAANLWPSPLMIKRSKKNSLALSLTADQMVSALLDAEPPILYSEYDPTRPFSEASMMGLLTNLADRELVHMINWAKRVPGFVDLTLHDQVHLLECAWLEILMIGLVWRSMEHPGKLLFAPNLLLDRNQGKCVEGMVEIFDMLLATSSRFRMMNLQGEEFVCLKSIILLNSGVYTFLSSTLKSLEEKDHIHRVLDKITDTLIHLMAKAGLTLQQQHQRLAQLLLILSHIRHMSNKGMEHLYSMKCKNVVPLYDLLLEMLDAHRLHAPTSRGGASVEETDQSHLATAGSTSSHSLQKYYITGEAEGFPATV
Method: as §1, §2, §3
(§4) 25 μl cell culture supernatants were collected from the 96-well plate and, then added to a new luminescence microplate, which was incubated at 65° C. water bath for 30 minutes to remove the activity endogenous alkaline phosphatase, and was placed on ice for 5 minutes and was centrifuged (1,000 rpm) for one minute.

[3] = biological target: T3, Estrogen Receptor (ER) (Homo sapiens, UniProt P03372); experiment: ER total activity assay (pERE-TA-SEAP reporter in MCF-7 cells); conditions: for ER activity (FIG. 1, in words): 2 μg/ml, 5 μg/ml and 10 μg/ml; for ER activity compared with 17-β Estradiol (positive control), FIG. 1, in words: MCF-7 cells
T3 construct: endogenous in cells; host or cells: MCF-7
T3 sequence (P03372 1-595): T2 sequence (P03372 1-595)
Method: ER is a ligand-activated enhancer protein that is a member of the steroid/nuclear receptor superfamily. […] Secreted alkaline phosphatase (SEAP) is a reporter widely used to study promoter activity or gene expression.
The 1 ml 0.05% trypsin-EDTA solution was added to 80% confluence (on Day 5, if cells were in log phase) of MCF-7 cells in a T75 flask at 37° C. for 5 minutes. After the cells were detached, 5 ml charcoal-treated FBS-containing medium were added to suspend the cells. The charcoal-treated FBS-containing PBS medium were added 2 ml cell suspensions to the final volume of 10 ml of a mixture. The mixture was dispensed into each well (100 μl/well, 2×10^4 cells/well) of a 96-well plate by 8-channel pipette, and the 96-well plate was placed at 37° C. and 5% CO2 overnight to obtain about 70% confluence.
To transfect cells to express the ERE, a transfection mixture was prepared. TransIT®-LT1 Transfection Reagent is a broad spectrum reagent that provides high efficiency plasmid DNA delivery in many mammalian cell types including primary cells. Specifically, 1 ml Opti-MEM®, 14 μl TransIT®-LT1 Transfection Reagent and 5 μg pERE-TA-SEAP were added into a 1.5 ml Eppendorf and let the transfection mixture stand for 15-30 minutes.
Transfection mixture containing TransIT-DNA was dispensed into each well (10 μl/well) of a 96-well plate, and the 96-well plate was placed at 37° C. and 5% CO2 for 24 hours. The supernatants were removed from the 96-well plate using 8-channel pipette.
as §4

T1 sequence (Q92731 whole entry, species assumed): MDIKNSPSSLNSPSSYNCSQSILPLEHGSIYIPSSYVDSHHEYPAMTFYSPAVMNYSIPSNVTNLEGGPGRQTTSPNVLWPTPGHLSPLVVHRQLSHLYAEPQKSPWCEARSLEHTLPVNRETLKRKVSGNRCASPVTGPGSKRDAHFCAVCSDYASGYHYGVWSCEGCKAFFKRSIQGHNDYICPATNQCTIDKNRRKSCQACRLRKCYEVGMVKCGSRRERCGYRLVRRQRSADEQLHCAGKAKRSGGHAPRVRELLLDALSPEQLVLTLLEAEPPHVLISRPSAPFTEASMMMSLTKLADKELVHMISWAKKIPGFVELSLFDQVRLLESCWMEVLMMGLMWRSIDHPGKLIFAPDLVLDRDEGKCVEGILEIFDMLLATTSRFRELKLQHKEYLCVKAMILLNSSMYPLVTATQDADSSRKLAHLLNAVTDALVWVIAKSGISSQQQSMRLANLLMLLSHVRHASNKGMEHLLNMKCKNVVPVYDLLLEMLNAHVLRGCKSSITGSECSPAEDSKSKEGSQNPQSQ

**Q.** `C[C@]12CC[C@@H]3c4ccc(O)cc4CC[C@H]3[C@@H]1CC[C@@H]2O` [17-β Estradiol (E2), 17-β Estradiol, reference compound] was tested. Which “ER Subtype Activity ER-β” value ([1]; 200 nM) did it give?
**A.** The value was 3.70 ± 0.45.

**Q.** For `C=C1CCCC(C)(C)C1CC/C(C)=C/C(=O)O` (stereo not shown) [Compound 1, (E)-5-(2,2-dimethyl-6-methylenecyclohexyl)-3-methylpent-2-enoic acid], which “ER Subtype Activity ER-α” value [2] is on record?
**A.** The value was 1.21 ± 0.53.

**Q.** And the “ER-β versus ER-α activity (in words)” value [1]?
**A.** Its value is “superior ER-β activity over ER-α activity”.

**Q.** What about the ER-β/ER-α ([1]; 25 μg/mL) of the same compound?
**A.** Its ER-β/ER-α is 3.1.

**Q.** What about the “ER Subtype Activity ER-β” value ([1]; 25 μg/mL) of the same compound?
**A.** Its value is 3.80 ± 0.11.

**Q.** What about the “ER activity (FIG. 1, in words)” value [3] of the same compound?
**A.** The value was “significant ER activity”.

**Q.** What about the “ER activity compared with 17-β Estradiol (positive control), FIG. 1, in words” value [3] of the same compound?
**A.** The value was “superior ER activity over 17-β Estradiol”.

**Q.** `C=C1CCCC(C)(C)[C@@H]1/C=C/C(C)=C/C(=O)O` [Compound 2, (+)-(2E,-4E)-5-((S)-2,2-dimethyl-6-methylenecyclohexyl)-3-methylpenta-2,4-dienoic acid] was tested. Which “ER Subtype Activity ER-α” value [2] did it give?
**A.** The value was 1.16 ± 0.16.

**Q.** What about the “ER-β versus ER-α activity (in words)” value [1] of the same compound?
**A.** The value was “superior ER-β activity over ER-α activity”.

**Q.** What about the ER-β/ER-α ([1]; 25 μg/mL) of the same compound?
**A.** Its ER-β/ER-α is 2.2.

**Q.** And the “ER Subtype Activity ER-β” value ([1]; 25 μg/mL)?
**A.** Its value is 2.53 ± 0.77.

**Q.** And the “ER activity (FIG. 1, in words)” value [3]?
**A.** The value was “significant ER activity”.

**Q.** What about the “ER activity compared with 17-β Estradiol (positive control), FIG. 1, in words” value [3] of the same compound?
**A.** Its value is “superior ER activity over 17-β Estradiol”.
